Measured values: patent US20250302043A1, “BIOCIDE FORMULATIONS FOR THE PRESERVATION OF ANALYTE DETECTION SENSOR(S) AND METHOD(S) OF USE AND THEREOF” (Siemens Healthcare Diagnostics Inc., priority 2019, published 2025)

Columns and labels:
[1] = tested on: bacteria (including S. aureus, E. coli, P. aeruginosa, and C. maltaromaticum) and fungi (including, C. albicans, A. niger, and Penicillium sp.); assay: Biocide efficacy: concentrations (CFU per milliliter) of contaminants over time on plates treated with biocide; format: cell-based; conditions: for decrease or elimination of the bacteria and/or fungi contaminants: plates
From the text: FIG. 3 is a graphical plot showing the concentrations (measured in CFU per milliliter) of various contaminants (y-axis), such as, by way of example only, bacteria and fungi, over a period of time in weeks (x-axis) on plates treated with a concentration of about 20 ppm hexahydro 1,3,5-tris(2-hydroxy ethyl)-S-triazine (“Onyxide200”) biocide in accordance with the presently disclosed and/or claimed inventive concept(s).
FIG. 4A is a graphical plot showing the concentrations (measured in CFU per milliliter) of various contaminants (y-axis), such as, by way of example only, bacteria and fungi, over a period of time in weeks (x-axis) on plates treated with a concentration of about 5 ppm of 5-chloro-2-methylisothiazol-3(2H)-one (“Cl-MlT”) biocide in accordance with the presently disclosed and/or claimed inventive concept(s).
FIG. 5A is a graphical plot showing the concentrations (measured in CFU per milliliter) of various contaminants (y-axis), such as, by way of example only, bacteria and fungi, over a period of time in weeks (x-axis) on plates treated with a combination of concentrations of about 20 ppm of Onyxide200 biocide and about 4 ppm of Cl-MlT biocide in accordance with the presently disclosed and/or claimed inventive concept(s).
Referring now to FIG. 3, shown therein is a graphical plot showing the concentrations (measured in CFU per milliliter) of various contaminants (y-axis), such as, by way of example only, bacteria (including S. aureus, E. coli, P. aeruginosa, and C. maltaromaticum) and fungi (including, C. albicans, A. niger, and Penicillium sp.) over a period of five weeks (x-axis) on plates treated with a concentration of about 20 ppm of the individual aqueous biocide Onyxide200 in accordance with the presently disclosed and/or claimed inventive concept(s). […]
Referring now to FIG. 5A, shown therein is a graphical plot showing the concentrations (measured in CFU per milliliter) of various contaminants (y-axis), such as, by way of example only, bacteria (including S. aureus, E. coli, P. aeruginosa, and C. maltaromaticum) and fungi (including, C. albicans, A. niger, and Penicillium sp.) over a period of six weeks (x-axis) on plates treated with a combined aqueous biocide formulation comprising concentrations of about 20 ppm of Onyxide200 biocide and about 4 ppm of Cl-MlT biocide in accordance with the presently disclosed and/or claimed inventive concept(s). […] This is synergistic effect allows for a significant increase in the formulation's efficacy for contaminant removal over the individual component biocides (Onyxide200 and Cl-MlT) which comprise the formulation.

[2] = tested on: creatinase enzyme of creatinine detection sensors; assay: Inactivation of the enzyme of creatinine detection sensors after exposure to biocide; format: biochemical; conditions: individual biocide; creatinine detection sensor; 'in as little as'
From the text: Biocides are often used to preserve the at least one analyte detection sensor(s) of a sensor array present in a blood gas, electrolyte, and/or metabolite instrument. However, when such analyte detection sensor(s) is a creatinine detection sensor(s), these biocides inactivate some or all of the enzymes present on and/or in the creatinine sensor(s). In the context of creatinine sensors, such sensors rely on enzymes containing free sulfhydryl groups (—SH) for the proper and continuous functioning of the sensors. Such free sulfhydryl groups chemically react with certain species of biocide(s) (such as, Cl-MlT) that result in the inactivation of the creatinine sensor's(s′) enzymes, thereby resulting in decreased (or total loss) of functional utility and/or functional life of the creatinine sensor(s). Such inactivation can occur very rapidly. […]
Referring now to FIG. 4A, shown therein is a graphical plot showing the concentrations (measured in CFU per milliliter) of various contaminants (y-axis), such as, by way of example only, bacteria (including S. aureus, E. coli, P. aeruginosa, and C. maltaromaticum) and fungi (including, C. albicans, A. niger, and Penicillium sp.) over a period of six weeks (x-axis) on plates treated with a concentration of about 5 ppm of the individual aqueous biocide Cl-MlT in accordance with the presently disclosed and/or claimed inventive concept(s).

| SMILES | week of plating at which decrease and/or elimination was obtained for some contaminants ([1]; about 1 ppm individual aqueous biocide, FIG. 4B) [week] | decrease or elimination of the bacteria and/or fungi contaminants ([1]; about 1 ppm individual aqueous biocide, six weeks, FIG. 4B) | week after plating at which decrease and/or elimination was obtained for some contaminants ([1]; about 5 ppm individual aqueous biocide, FIG. 4A) [week] | decrease or elimination of the bacteria and/or fungi contaminants ([1]; about 5 ppm individual aqueous biocide, six weeks, FIG. 4A) | time after exposure at which inactivation of the enzyme occurs [2] [days] | decrease or elimination of the bacteria and/or fungi contaminants ([1]; about 20 ppm individual aqueous biocide, five weeks, FIG. 3) |
| --- | --- | --- | --- | --- | --- | --- |
| Cn1sc(Cl)cc1=O [Cl-MlT, 5-chloro-2-methylisothiazol-3(2H)-one] | > 6 | eventually resulted in a decrease or elimination of only some of the bacteria and/or fungi contaminants | 5 | eventually resulted in a decrease or elimination of the bacteria and/or fungi contaminants | 1 to 4 |  |
| OCCN1CN(CCO)CN(CCO)C1 [Onyxide200, hexahydro 1,3,5-tris(2-hydroxyethyl)-S-triazine] |  |  |  |  |  | did not result in a substantial decrease or elimination of the bacteria and/or fungi contaminants |
